In patent publication US9474790B2, “Stable, protracted GLP-1/glucagon receptor co-agonists for medical use” (Novo Nordisk A/S, priority 2013, dated 2016):
Numbered stars: 1 amine (or outer) side, 2 acyl side, 3 side chain; on linkers, the order of the positions; unused ones are H or OH. Square brackets hold non-standard residues; d marks the D form. Side chains are listed from the residue outwards. Peptide text beside a SMILES is read from it. * marks the point of attachment. C18 diacid = O=C(O)CCCCCCCCCCCCCCCCC(=O)*; γGlu = O=C(O)[C@H](CCC(=O)[*:2])N[*:1]; AEEA = NCCOCCOCC(=O)O; Aib = CC(C)(N)C(=O)O

Experiment: Thioflavin T (ThT) fibrillation assay for physical stability
Type: physicochemical
Settings: 250 μM in 10 mM HEPES buffer, pH 7.5, 37° C., shaking 960 rpm
How it was run: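 Fibrillation was followed by ThT (1 μM) fluorescence every 20 min, 444/485 nm, for 250 μM peptide in 10 mM HEPES pH 7.5 shaken at 960 rpm, 37° C. Lag time (t0−2τ) and apparent rate constant (1/τ) come from a sigmoidal fit. Recovery is % of initial concentration remaining soluble after centrifugation and filtration (RP-HPLC).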

THT assay Lag time (Ex. 76) | Structure (SMILES)
45 h | CC(C)C[C@H](NC(=O)[C@H](CC(C)C)NC(=O)[C@H](Cc1c[nH]c2ccccc12)NC(=O)[C@H](CCC(N)=O)NC(=O)[C@@H](NC(=O)[C@H](Cc1ccccc1)NC(=O)[C@H](CCC(=O)O)NC(=O)[C@H](CCC(N)=O)NC(=O)[C@H](C)NC(=O)[C@H](C)NC(=O)[C@H](CCCCN)NC(=O)[C@H](CO)NC(=O)[C@H](CC(=O)O)NC(=O)[C@H](CC(C)C)NC(=O)[C@H](Cc1ccc(O)cc1)NC(=O)[C@H](CCCCN)NC(=O)[C@H](CO)NC(=O)[C@H](CC(C)C)NC(=O)[C@H](CC(=O)O)NC(=O)[C@H](CO)NC(=O)[C@@H](NC(=O)[C@H](Cc1ccccc1)NC(=O)[C@@H](NC(=O)CNC(=O)[C@H](CCC(N)=O)NC(=O)C(C)(C)NC(=O)[C@@H](N)Cc1c[nH]cn1)[C@@H](C)O)[C@@H](C)O)C(C)C)C(=O)N[C@@H](CC(N)=O)C(=O)N[C@@H](CCCCNC(=O)CC[C@H](NC(=O)CC[C@H](NC(=O)COCCOCCNC(=O)COCCOCCNC(=O)CC[C@H](NC(=O)CCCCCCCCCCCCCCCCC(=O)O)C(=O)O)C(=O)O)C(=O)O)C(N)=O [Example 8, N^ε29-[(4S)-4-carboxy-4-[[(4S)-4-carboxy-4-[[2-[2-[2-[[2-[2-[2-[[(4S)-4-carboxy-4-(17-carboxyheptadecanoylamino)butanoyl]amino]ethoxy]ethoxy]acetyl]amino]ethoxy]ethoxy]acetyl]amino]butanoyl]amino]butanoyl]-[Aib2,Leu10,Lys17,Ala18,Glu21,Leu27,Lys29]-Glucagon amide] (H-H[Aib]QGTFTSDLSKYLDSKAAQEFVQWLLNK([γGlu-γGlu-AEEA-AEEA-γGlu-C18 diacid])-NH2; N-terminus assumed)
7 h | CC(C)C[C@H](NC(=O)[C@H](Cc1ccc(O)cc1)NC(=O)[C@H](CCCCN)NC(=O)[C@H](CO)NC(=O)[C@H](CC(C)C)NC(=O)[C@H](CC(=O)O)NC(=O)[C@H](CO)NC(=O)[C@@H](NC(=O)[C@H](Cc1ccccc1)NC(=O)[C@@H](NC(=O)CNC(=O)[C@H](CCC(N)=O)NC(=O)C(C)(C)NC(=O)[C@@H](N)Cc1c[nH]cn1)[C@@H](C)O)[C@@H](C)O)C(=O)N[C@@H](CC(=O)O)C(=O)N[C@@H](CCCCNC(=O)CC[C@H](NC(=O)CC[C@H](NC(=O)COCCOCCNC(=O)COCCOCCNC(=O)CC[C@H](NC(=O)CCCCCCCCCCCCCCCCC(=O)O)C(=O)O)C(=O)O)C(=O)O)C(=O)N[C@@H](CCCNC(=N)N)C(=O)N[C@@H](CCCNC(=N)N)C(=O)N[C@@H](C)C(=O)N[C@@H](CCCNC(=N)N)C(=O)N[C@@H](CCC(=O)O)C(=O)N[C@@H](Cc1ccccc1)C(=O)N[C@H](C(=O)N[C@@H](CCC(N)=O)C(=O)N[C@@H](Cc1c[nH]c2ccccc12)C(=O)N[C@@H](CC(C)C)C(=O)N[C@@H](CC(C)C)C(=O)N[C@@H](CC(N)=O)C(=O)N[C@H](C(N)=O)[C@@H](C)O)C(C)C [Example 10, N^ε16-[(4S)-4-carboxy-4-[[(4S)-4-carboxy-4-[[2-[2-[2-[[2-[2-[2-[[(4S)-4-carboxy-4-(17-carboxyheptadecanoylamino)butanoyl]amino]ethoxy]ethoxy]acetyl]amino]ethoxy]ethoxy]acetyl]amino]butanoyl]amino]butanoyl]-[Aib2,Leu10,Lys16,Arg20,Glu21,Leu27]-Glucagon amide] (H-H[Aib]QGTFTSDLSKYLDK([γGlu-γGlu-AEEA-AEEA-γGlu-C18 diacid])RRAREFVQWLLNT-NH2; N-terminus assumed)
